According to PubChem BioAssay AID330 (DTP/NCI, 2004):
Several values for one entry are separate records, joined by “and”; a condition that tells them apart may be missing. Equal entries are not always repeated. Toxic doses and inconclusive results are not listed. How the source made its calls: active means survival T/C of 150% or more; inactive means T/C below 125% in these data.

Tested on: P388 leukemia ip, CD2F1 mice, survival T/C
Assay: NCI In Vivo Anticancer Drug Screen. Data for tumor model P388 Leukemia (intraperitoneal) in CD2F1 (CDF1) mice
Details: endpoint: median survival time, higher = longer survival
Outline: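 Mice carrying the transplanted tumor received test compound or vehicle. Survival was recorded in each group, and the value is the treated-group measurement divided by that of the vehicle-treated control group.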

[1] = dose: 50.0 mg/kg/injection, schedule: Q01DX005 (ip), vehicle: Klucel (hydroxypropylcellulose) (HPC)
[2] = dose: 100.0 mg/kg/injection, schedule: Q01DX005 (ip), vehicle: Klucel (hydroxypropylcellulose) (HPC)
[3] = dose: 200.0 mg/kg/injection, schedule: Q01DX005 (ip), vehicle: Klucel (hydroxypropylcellulose) (HPC)
[4] = dose: 60.0 mg/kg/injection, schedule: Q01DX005 (ip), vehicle: saline with Tween-80
[5] = dose: 120.0 mg/kg/injection, schedule: Q01DX005 (ip), vehicle: saline with Tween-80
[6] = dose: 240.0 mg/kg/injection, schedule: Q01DX005 (ip), vehicle: saline with Tween-80
[7] = dose: 25.0 mg/kg/injection, schedule: Q01DX005 (ip), vehicle: Klucel (hydroxypropylcellulose) (HPC)

Measured: T/C

CCOP(=S)(Oc1cnn(C)c(=O)c1OC)OC(C)C (centres undefined)
inactive: dose: 0.78 mg/kg/injection, schedule: Q01DX005 (ip), vehicle: saline with Tween-80 98 % of control | dose: 1.56 mg/kg/injection, schedule: Q01DX005 (ip), vehicle: saline with Tween-80 100 % of control | dose: 3.13 mg/kg/injection, schedule: Q01DX005 (ip), vehicle: saline with Tween-80 98 % of control

O=C1C=C(O)CC2(CCCCC2)C1
inactive: [1] 102 % of control | [2] 100 % of control and 96 % of control | [3] 104 % of control and 105 % of control

O=C(O)c1cc2ccccc2[nH]c1=O
inactive: [1] 97 % of control | [2] 97 % of control | [3] 104 % of control

CCOc1cccc(Cc2c[nH]c(=O)[nH]c2=O)c1
inactive: [4] 94 % of control | [5] 92 % of control | [6] 90 % of control

COc1cc(-c2ccc(N=Nc3cc(S(=O)(=O)O)c4ccccc4c3O)c(OC)c2)ccc1N=Nc1cc(S(=O)(=O)O)c2ccccc2c1O
inactive: dose: 100.0 mg/kg/injection, schedule: Q01DX009 (ip), vehicle: saline 99 % of control | dose: 200.0 mg/kg/injection, schedule: Q01DX009 (ip), vehicle: saline 104 % of control | dose: 400.0 mg/kg/injection, schedule: Q01DX009 (ip), vehicle: saline 115 % of control

O=c1ccccc(Br)c1O
inactive: [7] 100 % of control | [1] 106 % of control | [2] 106 % of control

COc1ccc2[nH]cc(CCN(C)C)c2c1
inactive: dose: 12.5 mg/kg/injection, schedule: Q01DX009 (ip), vehicle: saline with Tween-80 115 % of control | dose: 16.5 mg/kg/injection, schedule: Q01DX009 (ip), vehicle: saline with Tween-80 113 % of control | dose: 25.0 mg/kg/injection, schedule: Q01DX009 (ip), vehicle: saline with Tween-80 104 % of control | dose: 37.5 mg/kg/injection, schedule: Q01DX009 (ip), vehicle: saline with Tween-80 109 % of control | dose: 50.0 mg/kg/injection, schedule: Q01DX009 (ip), vehicle: saline with Tween-80 115 % of control

O=C(O)CCC12CCC(=O)N1Cc1ccccc1C2=O (centres undefined)
inactive: [4] 107 % of control | [5] 110 % of control | [6] 109 % of control

CCOP(=O)(OCC)C(C#N)OC(C)(C)C (centres undefined)
inactive: [4] 109 % of control | [5] 93 % of control

CCCSC(=O)Nc1ccc(Cc2ccc(NC(=O)SCCC)cc2)cc1
inactive: [4] 90 % of control | [5] 87 % of control | [6] 99 % of control

CN(C)C(=S)Nc1ccc(S(=O)(=O)N2CCCCC2)cc1
inactive: dose: 50.0 mg/kg/injection, schedule: Q01DX009 (ip), vehicle: Klucel (hydroxypropylcellulose) (HPC) 105 % of control | dose: 100.0 mg/kg/injection, schedule: Q01DX009 (ip), vehicle: Klucel (hydroxypropylcellulose) (HPC) 105 % of control | dose: 200.0 mg/kg/injection, schedule: Q01DX009 (ip), vehicle: Klucel (hydroxypropylcellulose) (HPC) 105 % of control | dose: 400.0 mg/kg/injection, schedule: Q01DX009 (ip), vehicle: Klucel (hydroxypropylcellulose) (HPC) 101 % of control

CCN(CC)CCCC(C)NC1CCCc2cc3c(cc21)C(=O)c1ccccc1C3=O (centres undefined)
inactive: dose: 6.25 mg/kg/injection, schedule: Q04DX003 (ip), vehicle: saline with Tween-80 98 % of control | dose: 12.5 mg/kg/injection, schedule: Q04DX003 (ip), vehicle: saline with Tween-80 94 % of control | dose: 25.0 mg/kg/injection, schedule: Q04DX003 (ip), vehicle: saline with Tween-80 90 % of control

C1CC2CC1CC2CNCC1CC2CCC1C2 (centres undefined)
inactive: dose: 12.5 mg/kg/injection, schedule: Q01DX005 (ip), vehicle: Klucel (hydroxypropylcellulose) (HPC) 103 % of control | [7] 103 % of control | [1] 98 % of control and 101 % of control

COC(=O)C1CC(C)N1C(C)C (centres undefined)
inactive: dose: 50.0 mg/kg/injection, schedule: Q01DX005 (ip), vehicle: saline 95 % of control | dose: 100.0 mg/kg/injection, schedule: Q01DX005 (ip), vehicle: saline 97 % of control | dose: 200.0 mg/kg/injection, schedule: Q01DX005 (ip), vehicle: saline 100 % of control
